In US20250084372A1, “IN VITRO DERIVATION OF GONADAL SOMATIC CELLS” (Conception Bisosciences, Inc., priority 2020, published 2025):

Key:
[1] = test system: second intermediate cell population (LHX1, PAX2, WT1, RUNX1); experiment: Intermediate mesoderm marker expression in second intermediate cell population; assay type: cell-based, human; conditions: increasing concentration; for expression of intermediate mesoderm markers WT1 and RUNX1: CHIR 0.5, 1 or 2 μM, RA or TTNPB 0, 0.1, 0.5 or 1 μM
Method: The cell suspension was centrifuged at 1200 RPM for 5 min and the supernatant was discarded. The centrifuged cells were resuspended in 1 ml of GK2 medium and the cells were counted. […] The plates were cultured for 24 hours, and then 80% of the media was replaced with fresh IM-induction media without the ROCK inhibitor. 80% of the media was again replaced every other day until the cells became confluent (about 5-6 days). Once the cells were confluent, the cells were passaged to fresh fibronectin-coated 24-well plates, with at least 50,000 cells per well after passage (25k/cm^2).

[2] = test system: ovarian somatic cells (OSCs); experiment: RA concentration and exposure gradient during OSC induction, FOXL2 and KRT19 staining; conditions: 10-step gradient 0 μM to 10 μM
[3] = test system: second intermediate cell population; experiment: Induction of second intermediate (IM) cell population: survival and morphology, phase contrast; assay type: cell-based, human; conditions: 5 days in IM-induction media, increasing concentration
Method: The cell suspension was centrifuged at 1200 RPM for 5 min and the supernatant was discarded. The centrifuged cells were resuspended in 1 ml of GK2 medium and the cells were counted. About 720,000 cells (from 24 well plate: 30,000 cells per well) were added to 12 mL IM-induction medium (as prepared in Table 10, but without the ROCK inhibitor). 12 μL ROCK inhibitor Y-27632 (1000×) or 36 μL of CET (3:1000) (final concentration of CET in media: 50 nM Chroman1, 5 μM Emricasan, 0.7 μM Trans-ISRIB) was added to obtain 60,000 cells/mL. 500 μL of the solution was placed in each well of fibronectin coated 24-well plate (about 30,000 cells/well). The plates were cultured for 24 hours, and then 80% of the media was replaced with fresh IM-induction media without the ROCK inhibitor. 80% of the media was again replaced every other day until the cells became confluent (about 5-6 days). Once the cells were confluent, the cells were passaged to fresh fibronectin-coated 24-well plates, with at least 50,000 cells per well after passage (25k/cm^2). About 4-5 million second intermediate cells were produced per 24 well plate. […]

OSCs = test system: OSCs
Method: To assay whether the gonadal somatic cells (such as the ovarian somatic cells—OSCs) generated from pluripotent stem cells are functional, expression of CYP19A1 was assayed by qPCR, and steroidogenesis was measured by ELISA for estradiol.
A first intermediate cell population expressing markers representative of mesoderm, and a second intermediate cell population expressing markers representative of intermediate mesoderm, and the OSCs were generated according to the protocols described in Example 6.

[4] = test system: ovarian somatic cells (OSCs); experiment: Concentration titration of BMP4, follistatin and FGF2 in OSC induction, qPCR for GATA4 and FOXL2; assay type: cell-based, human; conditions: BMP4 20 ng/mL, follistatin removed
Method: Various concentration titrations of BMP4, Follistatin and FGF were tested in OSC induction, and the resulting cells were examined for expression of bipotential gonadal markers as well as that of granulosa markers.
The OSCs were induced based on the protocols described in Example 6, but with various concentrations of BMP4. Follistatin and FGF tested.
The OSC induction conditions were first tested by varying the BMP4 concentration. […] The gene expression of resulting cells was tested by qPCR for bi-potential gonadal cell markers (GATA4) as well as for granulosa cell markers (FOXL2) (FIGS. 12A and 12B respectively). Expression of GATA4 increased with higher BMP4 concentration, and FOXL2 expression appeared to peak at 10 ng/ml of BMP4 under the conditions tested.
Four different concentrations of follistatin were then tested in OSC induction, with the concentration of BMP4 kept constant at 20 ng/ml as previously described. The gene expression of resulting cells was tested by qPCR for bi-potential gonadal cell markers (GATA4) as well as for granulosa cell markers (FOXL2) (FIGS. 12C and 12D respectively). […] The generation of mature OSCs were also examined by FOXL2 expression. […] In subsequent experiments, OSC induction in the absence or at lower concentrations of follistatin was further explored. […]

[5] = test system: ovarian somatic cells (OSCs); experiment: OSC induction with different FGF family members, marker expression; assay type: cell-based, human; conditions: 10 ng/mL FGF in granulosa double medium
Method: Fibroblast growth factors (FGFs) are a large family of proteins that are important for signaling events in a wide variety of processes. […] Briefly, gonadal cells were induced in granulosa doublemedium comprising different FGFs, and the expression of bipotential gonadal markers as well as that of granulosa markers were measured in the resulting cells.
The replated cells from the second intermediate population were incubated in the granulosa double medium (also referred to as gonadal induction medium or OSC induction medium) according to Table 18, with the same concentration of either FGF2, 9, 10, 16, 17, 18 or 19. The expression of bipotential gonadal markers (WT1, LHX9, GADD45G and GATA4) as well as granulosa markers (FOXL2, NR1H4 and KITLG) were measured in the resulting cells.

In the case of Cc1c[nH]c(-c2cnc(NCCNc3ccc(C#N)cn3)nc2-c2ccc(Cl)cc2Cl)n1 [CHIR, CHIR99021], the “expression of intermediate mesoderm markers WT1 and RUNX1” value [1] is reported as “increased expression” and the “expression of intermediate mesoderm markers LHX1 and PAX2” value ([1]; CHIR 1, 2 or 3 μM, RA 50 nM, 100 nM, 500 nM or 1 μM) is reported as “increased expression”.
In the case of CC1=C(/C=C/C(C)=C/C=C/C(C)=C/C(=O)O)C(C)(C)CCC1 [RA, retinoic acid], the “RA concentration at which KRT19 staining peaked” value [2] is reported as “around 500 nM”.
In the case of C/C(=C\c1ccc(C(=O)O)cc1)c1ccc2c(c1)C(C)(C)CCC2(C)C [TTNPB], the “cell survival and cellular morphology of second intermediate cell population” value [3] is reported as “increased cell survival and uniform cellular morphology” and the “expression of intermediate mesoderm markers WT1 and RUNX1” value [1] is reported as “increasing expression”.
C[C@]12CCC(=O)C[C@@H]1CC[C@@H]1[C@@H]2CC[C@]2(C)[C@@H](O)CC[C@@H]12 [dHT, dihydroxy-testosterone] was tested, and the “estradiol levels in the media, 48 hrs compared to 24-hr incubation” value (OSCs; 50 ng/ml, 48 hrs) was “further increase” and the “estradiol levels in the media” value (OSCs; 24-hr incubation, higher concentration) was “increased”.
For FGF2, the “FGF2 concentration at which GATA4 and FOXL2 expression reach saturation” value [4] was 20 ng/mL.
In the case of “FGF16: fibroblast growth factor family member”, the “expression of bipotential gonadal markers (WT1, LHX9, GADD45G, GATA4) compared to FGF2” value [5] is reported as “comparable or higher” and the “expression of granulosa markers (FOXL2, NR1H4, KITLG) compared to corresponding medium” value [5] is reported as “comparable”.
In the case of “FGF19: fibroblast growth factor family member”, the “expression of bipotential gonadal markers (WT1, LHX9, GADD45G, GATA4) compared to FGF2” value [5] is reported as “comparable or higher” and the “expression of granulosa markers (FOXL2, NR1H4, KITLG) compared to corresponding medium” value [5] is reported as “comparable”.
